Measured values taken from patent publication US4310532A, “Methods and piperidinyl-alkyl-benzamide composition for inhibiting H2 histamine receptors” (The University of Toledo, priority 1980, dated 1982).
≈ marks a conversion by molar mass, not a printed value. Read-outs that look alike come from different tables or passages of the source.

What was measured:
histamine H2 receptor [1] = assay: histamine H2 antagonist activity in vivo: block of histamine-stimulated gastric acid secretion in the lumen-perfused anesthetized rat; parameters: species or system rat (Sprague Dawley); conditions: urethane-anesthetized rat; antagonist 0.24 mg/kg rapid I.V.; histamine 0.13 μmol/kg/hr; compounds as hydrochloride salts
Protocol: Sprague Dawley rats weighing between 150-200 g were used for the evaluations. Perfusion was carried out with 5% glucose solution at 37° C. Administration of histamine and test compounds was carried out by rapid I.V. injection via cannulated jugular vein. Doses of 0.13 μmol/kg/hr. of histamine were used, and 0.24 mg/kg of antagonist test compound.

histamine H2 receptor [2] = biological target: T1, histamine H2 receptor (Cavia porcellus, UniProt P47747); assay: histamine H2 antagonism activity on the isolated guinea pig atrium (chronotropic response to histamine); format: cell-based, guinea pig (Hartley strain); conditions: experimental compound 10 μg/ml, histamine 0.05-2.5 μg/ml
T1 construct: histamine chronotropic response
Protocol: The histamine H2 antagonism activity of these piperidinyl-alkyl-benzamide compounds was tested on the isolated guinea pig atrium. The atria from Hartley strain guinea pigs were dissected and suspended in 25 ml of McEwen's solution and attached to a transducer. Spontaneous atrial rate was determined from the recorder tracing. Chronotropic responses to increasing concentrations of histamine (0.05-2.5 μg/ml) were evaluated in the presence of placebo or experimental compound. Results are expressed in Table I as the ratio of concentration of histamine required to increase atrial rate by 50 beats/minute:concentration of histamine required to increase atrial rate by 50 beats/minute in the presence of experimental compound, 10 μg/ml.

isolated rat uterus = assay: block of the contractile response to histamine of the isolated rat uterus; format: cell-based, rat (Sprague Dawley, female); conditions: read-out: EC50 (concentration of experimental compound required to block the contractile effect of histamine by 50%)
Protocol: Further evaluation involved testing the ability of the piperidinyl-alkyl-benzamides to block the response to histamine by the isolated rat uterus. Female Sprague Dawley rats weighing approximately 150 g were injected with diethylstilbesterol (0.15 mg/rat) fifteen hours prior to sacrifice. […] The results are expressed as the % change in the contractile response to histamine relative to placebo-histamine evaluation in Table III.

histamine H2 receptor [3] = assay: histamine H2-receptor antagonist activity in standard pharmacological tests (Tables I, II and III); conditions: result in words
Protocol: The histamine H2 antagonism activity of these piperidinyl-alkyl-benzamide compounds was tested on the isolated guinea pig atrium. The atria from Hartley strain guinea pigs were dissected and suspended in 25 ml of McEwen's solution and attached to a transducer. Spontaneous atrial rate was determined from the recorder tracing. Chronotropic responses to increasing concentrations of histamine (0.05-2.5 μg/ml) were evaluated in the presence of placebo or experimental compound. […]
The piperidine-alkyl-benzamides, as their hydrochloride salts, were evaluated for histamine H2 antagonist activity, in vivo, by their ability to block the stimulation of acid secretion by histamine from the lumen-perfused anesthetized (urethane) rat preparation as described in Ash and Shield, Br. J. Pharmacol. Chemotherapy 27, 427 (1966) and Durant, et al., J. Med. Chem. 18, 905 (1975). […]
Further evaluation involved testing the ability of the piperidinyl-alkyl-benzamides to block the response to histamine by the isolated rat uterus. […] Contractile responses were evaluated after the addition of placebo; after the addition of experimental compounds; and after the addition of histamine (25 μg/ml). The results are expressed as the % change in the contractile response to histamine relative to placebo-histamine evaluation in Table III. […]
The product was evaluated according to Tables I, II, and III above.

[4] = isolated rat uterus, histamine 25 μg/ml, diethylstilbesterol-primed

T1 sequence (P47747 whole entry): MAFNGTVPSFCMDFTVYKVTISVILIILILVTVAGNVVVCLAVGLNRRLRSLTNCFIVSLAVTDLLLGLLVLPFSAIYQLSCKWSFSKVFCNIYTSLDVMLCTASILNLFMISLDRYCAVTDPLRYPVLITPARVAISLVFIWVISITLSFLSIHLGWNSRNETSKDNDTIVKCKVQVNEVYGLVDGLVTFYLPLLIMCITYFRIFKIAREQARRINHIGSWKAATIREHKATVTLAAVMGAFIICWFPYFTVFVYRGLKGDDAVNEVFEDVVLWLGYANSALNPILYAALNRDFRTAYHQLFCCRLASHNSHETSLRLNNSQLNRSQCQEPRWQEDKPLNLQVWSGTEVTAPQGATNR

| HISTAMINE RATIO (concentration of histamine required to increase atrial rate by 50 beats/minute : same in the presence of experimental compound) (histamine H2 receptor [2]) | EC50 (isolated rat uterus; [4]) [µg/mL] | SMILES | MEAN % INHIBITION OF GASTRIC ACID SECRETION (histamine H2 receptor [1]) [%] | EC50 (isolated rat uterus; Rattus norvegicus) [µg/mL] | histamine H2-receptor antagonist activity (histamine H2 receptor [3]) |
| --- | --- | --- | --- | --- | --- |
| 0.004 | 0.31 (≈ 1.33 µM) | Cc1ccc(C(=O)NCC2CCNCC2)cc1 [Example 2, N-(4-piperidinylmethyl)-p-methylbenzamide] | 52 ± 5 | – | – |
| 0.005 | 0.38 (≈ 1.74 µM) | O=C(NCC1CCNCC1)c1ccccc1 [Example 1, N-(4-Piperidinylmethyl)benzamide] | 40 ± 6 | – | significant amount of histamine H2 --receptor antagonist activity |

| SMILES | HISTAMINE RATIO (concentration of histamine required to increase atrial rate by 50 beats/minute : same in the presence of experimental compound) (histamine H2 receptor [2]) | EC50 (isolated rat uterus; [4]) [µg/mL] | MEAN % INHIBITION OF GASTRIC ACID SECRETION (histamine H2 receptor [1]) [%] | EC50 (isolated rat uterus; Rattus norvegicus) [µg/mL] | histamine H2-receptor antagonist activity (histamine H2 receptor [3]) |
| --- | --- | --- | --- | --- | --- |
| CN/C(=N/CCSCc1nc[nH]c1C)NC#N [Cimetidine, reference compound] | 0.0025 | – | 78 ± 8 | 0.3 (≈ 1.19 µM) | – |
